How the values were obtained:
[1] = test system: elderly patients with systolic hypertension; experiment: Group I: double-blind randomised crossover study of single doses in patients with systolic hypertension, no baseline angiotensin II inhibition; conditions: for Sitting brachial blood pressure systolic: at 11.00 h after single dose at 08.00 h (ISMN 60 mg, captopril 25 mg, eprosartan 600 mg), placebo 173 ± 3; for Sitting brachial blood pressure systolic / Heart rate (sitting) / Sitting brachial blood pressure diastolic / Standing brachial blood pressure diastolic / Standing brachial blood pressure systolic / decrease in P1 (aortic first peak pressure) at nadir / decrease in P2 (augmentation pressure) at nadir: mean ± SEM; for Heart rate (sitting) / Sitting brachial blood pressure diastolic / Standing brachial blood pressure diastolic / Standing brachial blood pressure systolic: at 11.00 h after single dose at 08.00 h; for Heart rate (sitting): placebo 60 ± 4; for Sitting brachial blood pressure diastolic: placebo 82 ± 3; for Standing brachial blood pressure diastolic: placebo 83 ± 3; for Standing brachial blood pressure systolic: placebo 166 ± 4; for effect on augmentation index: post-dose observation period; for effect on aortic systolic blood pressure: ISMN and captopril P<0.0001, eprosartan P<0.001; for aortic systolic pressure lower than control at nadir of hypotensive effect: nadir ISMN 10.00 h, captopril 11.00 h, eprosartan 09.00 h
Description: The subjects were sixteen patients with long-standing hypertension, referred from their family physicians after having undergone treatment trials using a variety of conventional antihypertensive agents without reaching satisfactory control of systolic blood pressure. […] Plasma creatinine concentration was <0.15 mmol/l in every case. There was a history of myocardial infarction Or coronary bypass grafting in eight subjects, of peripheral vascular disease in four, and of diabetes mellitus (not requiring medication) in one. All patients were fully ambulant without symptomatic cardiac disease or known vascular aneurysm. Their current regimen of antihypertensive therapy had been stable for three weeks or more, and was continued unchanged through the present study. None had received nitrate therapy previously. Two different study protocols were used. One patient participated in both protocols with a 15-month break in between. Entry to either study required that systolic blood pressure should be between 150 and 200 mmHg, and that diastolic blood pressure should be equal to or less than 100 mmHg.
Group I protocol. […] Their baseline anti-hypertensive therapy, which excluded ACE inhibitors and angiotensin II receptor antagonists, consisted of one to three of the following drugs in conventional dosage:. diuretics (7 cases), beta blockers (7), prazosin (1), amlodipine (4), nifedipine controlled-release formulation (2). […] The pulse wave and pulse rate were measured at the same intervals. Between observations, the subjects engaged in sedentary recreational activities in a temperature-controlled environment.
Brachial blood pressure was recorded by sphygmomanometer, and pulse wave tonometry was performed at the radial artery with the patient seated. The aortic pulse wave form was determined and the aortic first peak pressure (P1) and augmentation pressure (P2) were quantified by computer software (SphygmoCor, AtCor Medical, Sydney), as previously reported.^13 Augmentation index (P2 expressed as % of pulse pressure) described the magnitude of wave reflection. Statistical analysis was by repeated measures analysis of variance using PRISM (GraphPad Software Inc., San Diego, Calif.) and post-hoc paired t tests. Values given are mean±SEM.

[2] = reported in literature (refs 15-17); cited from earlier work
[3] = test system: elderly patients with systolic hypertension on chronic angiotensin II inhibitors; experiment: Group II: double-blind randomised crossover study of single-dose ISMN in patients with AII inhibition at baseline; format: in vivo, human; conditions: for decrease in sitting diastolic pressure: not significant
Method: None had received nitrate therapy previously. Two different study protocols were used. […] Group II protocol. […] The two study days were one to two weeks apart. Observations were made from 0800 h to 1600 h as in Group I. These subjects differed from Group I in that they were receiving treatment at study entry with ACE inhibitor or angiotensin II receptor antagonist drugs, as follows: monopril 10 mg/d (1 case), captopril 50 mg/d (1), ramipril 10 mg/day (1), ramipril 10 mg/d and candesartan 16 mg/d (1), irbesartan 300 mg/d (1), telmisartan 40 mg/d (1). Their other baseline antihypertensive drug therapy consisted of 1-2 of the following agents in conventional dosage: hydrochlorthiazide (1), beta blockers (2), amlodipine (1), diltiazem controlled-delivery formulation (2). […] Values given are mean±SEM.

Structure (SMILES) | Sitting brachial blood pressure systolic ([1]; Group I) | Heart rate (sitting) ([1]; Group I) | Sitting brachial blood pressure diastolic ([1]; Group I) | Standing brachial blood pressure diastolic ([1]; Group I) | Standing brachial blood pressure systolic ([1]; Group I) | effect on augmentation index ([1]; Group I) | effect on heart rate ([1]; Group I, single dose) | effect on aortic systolic blood pressure ([1]; Group I, single dose) | decrease in P1 (aortic first peak pressure) at nadir ([1]; Group I, single dose) | decrease in P2 (augmentation pressure) at nadir ([1]; Group I, single dose) | aortic systolic pressure lower than control at nadir of hypotensive effect ([1]; Group I, single dose) | time to reach peak plasma concentration [2] | other results
C[C@H](CS)C(=O)N1CCC[C@H]1C(=O)O [Captopril, captopril] | 148 ± 5 mm Hg | 59 ± 4 bpm | 78 ± 2 mm Hg | 78 ± 2 mm Hg | 143 ± 5 mm Hg | Neither captopril nor eprosartan altered | not changed | significantly decreased | 9±2 mmHg | 9±3 mm Hg | 23 mm Hg | 1 h | 
CCCCc1ncc(/C=C(\Cc2cccs2)C(=O)O)n1Cc1ccc(C(=O)O)cc1 [Eprosartan, eprosartan] | 158 ± 5 mm Hg | 59 ± 4 bpm | 78 ± 3 mm Hg | 83 ± 4 mm Hg | 152 ± 4 mm Hg | Neither captopril nor eprosartan altered | not changed | significantly decreased | 4±2 mmHg | 6±3 mm Hg | 15 mm Hg | 1 to 2 h | 
O=[N+]([O-])O[C@@H]1CO[C@H]2[C@@H]1OC[C@@H]2O [ISMN, isosorbide mononitrate] | 145 ± 5 mm Hg | 60 ± 5 bpm | 77 ± 3 mm Hg | 77 ± 3 mm Hg | 139 ± 4 mm Hg | significantly reduced |  | significantly decreased | 11±2 mmHg | 19±3 mm Hg | 34 mm Hg | 3 to 4 h | peak decrease in augmentation index ([1]; FIGS. 1 and 2 (Groups I and II)): approximately 50 % of control; average post-dose decrease in augmentation index ([1]; Group I, ISMN 60 mg single dose, control 37.9±1.0%): 15±1%; average post-dose decrease in aortic systolic pressure ([1]; Group I, ISMN 60 mg single dose, control 160±2): 29±2 mmHg; Heart rate average post-dose increase ([1]; Group I, single dose, P<0.001): 3±1 b.p.m.; duration of depressor effect ([1]; extended-release preparation, observation to 16.00 h): sustained through the remainder of the observation period; average post-dose decrease in augmentation index ([3]; Group II (baseline AII inhibition), ISMN 60 mg single dose, control 38.5±1.1%): 16±1%; average post-dose decrease in aortic systolic pressure ([3]; Group II (baseline AII inhibition), ISMN 60 mg single dose, control 154±2): 34±3 mmHg; effect on sitting and standing brachial systolic blood pressure ([3]; Group II, P<0.0001): decreased; decrease in sitting brachial systolic blood pressure ([3]; Group II, at 12.00 h, from control value 176, P<0.001): 37 mm Hg; decrease in sitting diastolic pressure ([3]; Group II, at 12.00 h): 13 mm Hg; decrease in sitting brachial systolic blood pressure ([3]; Group II, at 16.00 h, from control value 173, P<0.001): 34 mm Hg; decrease in sitting diastolic pressure ([3]; Group II, at 16.00 h): 10 mm Hg; Heart rate, overall mean value ([3]; Group II, increased from mean value of 60, P<0.001): 64 bpm
